Measured values taken from patent US12304890B2, “R-type pyridyloxycarboxylic acid, salt and ester derivative thereof, and preparation method therefor, and herbicidal composition and application thereof” (Qingdao Kingagroot Chemical Compound Co., Ltd., priority 2018, dated 2025).

Tests used:
Type in all cases: in vivo
Echinochloa crusgalli = test: Post-emergence test experiment, Echinochloa crusgalli; conditions: for Activity level (growth inhibition rate), Echinochloa crusgalli: 1000 g a.i./ha, 3 weeks in greenhouse, fresh weight inhibition; for inhibition at 200 g/ha: Echinochloa crus-galli, 504 h, read-out: Echinochloa crusgalli, activity level (growth inhibition rate); for inhibition at 200 g/ha / Echinochloa crusgalli, activity level (growth inhibition rate): 3 weeks
Summary of the method: (§1)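 Read-out is fresh weight inhibition rate, taken 3 weeks after spraying. Treatment was applied to plants at the 2-3 leaf stage, grown from seed under 0.5-2 cm soil in greenhouse pots. Spray solution contained acetone, tween-80 and methyl oleate emulsible concentrate at 1.5 liters per hectare.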

Digitaria sanguinalis = test: Post-emergence test experiment, Digitaria sanguinalis; conditions: for Activity level (growth inhibition rate), Digitaria sanguinalis: 1000 g a.i./ha, 3 weeks in greenhouse, fresh weight inhibition; for inhibition at 200 g/ha: Digitaria sanguinalis, 504 h, read-out: Digitaria sanguinalis, activity level (growth inhibition rate); for inhibition at 200 g/ha / Digitaria sanguinalis, activity level (growth inhibition rate): 3 weeks
Summary of the method: as §1

[1] = tested on: Semen Euphorbiae Lathyridis; test: Post-emergence test experiment, Semen Euphorbiae Lathyridis; conditions: 3 weeks; for inhibition at 200 g/ha: 504 h, read-out: Semen Euphorbiae Lathyridis, activity level (growth inhibition rate)
Summary of the method: as §1

rice = test: Post-emergence test experiment, rice (crop selectivity); conditions: 3 weeks
Summary of the method: as §1

[2] = tested on: Monocotyledonous and dicotyledonous weed seeds and main crop seeds; test: Post-emergence test experiment, other weeds and crops (Table 4, 1000 g a.i./ha); conditions: 3 weeks in greenhouse, fresh weight inhibition
Summary of the method: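 Weed and crop seeds (wheat, corn, rice, soybean, cotton, oilseed, millet, sorghum) sown in soil pots in a greenhouse and sprayed at 2-3 leaf stage, 2 weeks after sowing. Compound in acetone/tween-80 with methyl oleate concentrate (1.5 L/ha) as synergist. Effect recorded as fresh-weight growth inhibition rate.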

rice (japonica rice) = test: Transplanted rice safety evaluation; conditions: transplanted 3-leaf japonica rice, 1000 g a.i./ha, 21 days after treatment
Experimental: In addition, the rice field soil that loaded into the 1/1,000,000 ha pot was leveled to keep water storage at 3-4 cm depth. The 3-leaf stage rice (japonica rice) was transplanted at 3 cm of transplanting depth the next day. The compound of the present invention was treated by the same way after 5 days of transplantation.
(§2) The fertility condition of Monochoria vaginalis 14 days and rice 21 days after the treatment of the compound of the invention with the naked eye.

Monochoria vaginalis = test: Weed control effect evaluation in rice field; conditions: paddy pot, 0.5 leaf stage, 1000 g a.i./ha, 14 days; weed resistant to pyrazosulfuron-ethyl and penoxsulam
Experimental: Rice field soil was loaded into a 1/1,000,000 ha pot. The seeds of Monochoria vaginalis were sowed and gently covered with soil, then left to stand still in greenhouse in the state of 0.5-1 cm of water storage. It was kept at 3-4 cm of water storage thereafter. The weeds were treated by dripping the WP or SC water diluents prepared according to the common preparation method of the compounds of the present invention with pipette homogeneously to achieve specified effective amount when Monochoria vaginalis reached 0.5 leaf stage.
as §2

[3] = 200 g a.i./ha, weed resistant to ALS inhibitor and ACCe herbicides
[4] = 200 g a.i./ha, weed resistant to cyhalofop-butyl

SMILES | Activity level (growth inhibition rate), Echinochloa crusgalli (Echinochloa crusgalli) | inhibition at 200 g/ha (Echinochloa crusgalli; [3]) [%] | Activity level (growth inhibition rate), Digitaria sanguinalis (Digitaria sanguinalis) | inhibition at 200 g/ha (Digitaria sanguinalis; [4]) [%] | inhibition at 200 g/ha [1, 4] [%] | rice, activity level (growth inhibition rate) (rice; 200 g a.i./ha) | Activity level (growth inhibition rate), Abutilon theophrasti Medic. [2] | Activity level (growth inhibition rate), Galium aparine [2] | Activity level (growth inhibition rate), Monochoria Vaginalis [2] | rice, safety level 0-5 (rice (japonica rice)) | Monochoria Vaginalis, activity level 0-5 (Monochoria vaginalis) | Echinochloa crusgalli, activity level (growth inhibition rate) (Echinochloa crusgalli; [3]) | Digitaria sanguinalis, activity level (growth inhibition rate) (Digitaria sanguinalis; [4]) | Semen Euphorbiae Lathyridis, activity level (growth inhibition rate) [1, 4] | Echinochloa crusgalli, activity level (growth inhibition rate) (Echinochloa crusgalli; 400 g a.i./ha, resistant weed) | Digitaria sanguinalis, activity level (growth inhibition rate) (Digitaria sanguinalis; 400 g a.i./ha, resistant weed) | Semen Euphorbiae Lathyridis, activity level (growth inhibition rate) ([1]; 400 g a.i./ha, resistant weed) | rice, activity level (growth inhibition rate) (rice; 400 g a.i./ha)
COC(=O)[C@@H](C)Oc1nc(F)c(Cl)c(N)c1Cl [Compound 2-69] | 5 (Level 5: the growth inhibition rate is greater than 85%) | > 85 | 5 (Level 5: the growth inhibition rate is greater than 85%) | > 85 | > 85 | 0 (Level 0: the growth inhibition rate is less than 5%) | 5 (Level 5: the growth inhibition rate is greater than 85%) | 5 (Level 5: the growth inhibition rate is greater than 85%) | 5 (Level 5: the growth inhibition rate is greater than 85%) | 0 (Level 0: the growth inhibition rate is less than 5%) | 5 (Level 5: the growth inhibition rate is greater than 85%) |  |  |  |  |  |  | 
CSC(=O)[C@@H](C)Oc1nc(F)c(Cl)c(N)c1Cl [Compound 2-70] | 5 (Level 5: the growth inhibition rate is greater than 85%) |  | 5 (Level 5: the growth inhibition rate is greater than 85%) |  |  | 0 (Level 0: the growth inhibition rate is less than 5%) | 5 (Level 5: the growth inhibition rate is greater than 85%) | 5 (Level 5: the growth inhibition rate is greater than 85%) | 5 (Level 5: the growth inhibition rate is greater than 85%) | 0 (Level 0: the growth inhibition rate is less than 5%) | 5 (Level 5: the growth inhibition rate is greater than 85%) | 5 (Level 5: the growth inhibition rate is greater than 85%) | 5 (Level 5: the growth inhibition rate is greater than 85%) | 5 (Level 5: the growth inhibition rate is greater than 85%) |  |  |  | 
CCOC(=O)[C@@H](C)Oc1nc(F)c(Cl)c(N)c1Cl [Compound 2-71] | 5 (Level 5: the growth inhibition rate is greater than 85%) |  | 5 (Level 5: the growth inhibition rate is greater than 85%) |  |  | 0 (Level 0: the growth inhibition rate is less than 5%) | 5 (Level 5: the growth inhibition rate is greater than 85%) | 5 (Level 5: the growth inhibition rate is greater than 85%) | 5 (Level 5: the growth inhibition rate is greater than 85%) | 0 (Level 0: the growth inhibition rate is less than 5%) | 5 (Level 5: the growth inhibition rate is greater than 85%) | 5 (Level 5: the growth inhibition rate is greater than 85%) | 5 (Level 5: the growth inhibition rate is greater than 85%) | 5 (Level 5: the growth inhibition rate is greater than 85%) | 5 (Level 5: the growth inhibition rate is greater than 85%) | 5 (Level 5: the growth inhibition rate is greater than 85%) | 5 (Level 5: the growth inhibition rate is greater than 85%) | 2 (Level 2: the growth inhibition rate is equal to or greater than 20% and less than 40%)
CCOC(=O)COC(=O)C(C)Oc1nc(F)c(Cl)c(N)c1Cl (stereo not drawn) [Compound 2-294] | 5 (Level 5: the growth inhibition rate is greater than 85%) |  | 5 (Level 5: the growth inhibition rate is greater than 85%) |  |  | 0 (Level 0: the growth inhibition rate is less than 5%) | 5 (Level 5: the growth inhibition rate is greater than 85%) | 5 (Level 5: the growth inhibition rate is greater than 85%) | 5 (Level 5: the growth inhibition rate is greater than 85%) | 0 (Level 0: the growth inhibition rate is less than 5%) | 5 (Level 5: the growth inhibition rate is greater than 85%) | 5 (Level 5: the growth inhibition rate is greater than 85%) | 5 (Level 5: the growth inhibition rate is greater than 85%) | 5 (Level 5: the growth inhibition rate is greater than 85%) |  |  |  | 
CC(Oc1nc(F)c(Cl)c(N)c1Cl)C(=O)OCc1ccccc1 (stereo not drawn) [Compound 2-300] | 5 (Level 5: the growth inhibition rate is greater than 85%) |  | 5 (Level 5: the growth inhibition rate is greater than 85%) |  |  | 0 (Level 0: the growth inhibition rate is less than 5%) | 5 (Level 5: the growth inhibition rate is greater than 85%) | 5 (Level 5: the growth inhibition rate is greater than 85%) | 5 (Level 5: the growth inhibition rate is greater than 85%) | 0 (Level 0: the growth inhibition rate is less than 5%) | 5 (Level 5: the growth inhibition rate is greater than 85%) | 5 (Level 5: the growth inhibition rate is greater than 85%) | 5 (Level 5: the growth inhibition rate is greater than 85%) | 5 (Level 5: the growth inhibition rate is greater than 85%) |  |  |  | 
C[C@@H](Oc1nc(F)c(Cl)c(N)c1Cl)C(=O)SCc1ccc(Cl)cc1 [Compound 2-319] | 5 (Level 5: the growth inhibition rate is greater than 85%) | > 85 | 5 (Level 5: the growth inhibition rate is greater than 85%) | > 85 | > 85 | 0 (Level 0: the growth inhibition rate is less than 5%) | 5 (Level 5: the growth inhibition rate is greater than 85%) | 5 (Level 5: the growth inhibition rate is greater than 85%) | 5 (Level 5: the growth inhibition rate is greater than 85%) | 0 (Level 0: the growth inhibition rate is less than 5%) | 5 (Level 5: the growth inhibition rate is greater than 85%) |  |  |  |  |  |  | 
C[C@@H](Oc1nc(F)c(Cl)c(N)c1Cl)C(=O)SCc1ccccn1 [Compound 2-343] | 5 (Level 5: the growth inhibition rate is greater than 85%) |  | 5 (Level 5: the growth inhibition rate is greater than 85%) |  |  | 0 (Level 0: the growth inhibition rate is less than 5%) | 5 (Level 5: the growth inhibition rate is greater than 85%) | 5 (Level 5: the growth inhibition rate is greater than 85%) | 5 (Level 5: the growth inhibition rate is greater than 85%) | 0 (Level 0: the growth inhibition rate is less than 5%) | 5 (Level 5: the growth inhibition rate is greater than 85%) | 5 (Level 5: the growth inhibition rate is greater than 85%) | 5 (Level 5: the growth inhibition rate is greater than 85%) | 5 (Level 5: the growth inhibition rate is greater than 85%) |  |  |  | 
